According to patent US20100197604A1, “USE OF PEPTIDE AS A THERAPEUTIC AGENT” (priority 2007, published 2010):

Test system: drug-resistant Mycobacterium tuberculosis
Conditions: drug-resistant Mycobacterium tuberculosis growth; peptide 10 micrograms per ml; seven days

CC[C@H](C)[C@H](NC(=O)[C@H](Cc1ccc(O)cc1)NC(=O)[C@@H](NC(=O)[C@H](CCCNC(=N)N)NC(=O)[C@@H](N)CC(=O)O)C(C)C)C(=O)N[C@@H](Cc1c[nH]cn1)C(=O)N1CCC[C@H]1C(=O)N[C@@H](Cc1ccccc1)C(=O)O [Angiotensin II]
% inhibition: 0.0%
